“Also recorded” adds a separate entry of the source.
Columns and labels:
C57BL/6J mice [1] = test: Head twitch response (HTR) in mice; format: in vivo; details: first 30 min after injection (i.p.)
Procedure: (§1) Open field: this apparatus has been described in the literature (Acta Crystallographica Section D, 2010, 66:486-501). Mice were placed into the open field for 30 min, injected with vehicle, (+)-LSD-(+)-tartrate (NIDA Drug Supply Program, Bethesda, MID), 38, or 33 (i.p.), and returned immediately to the open field for 30 min. Locomotion was monitored using Fusion Integra software (Omnitech, Columbus, OH).
Head twitch response: HTRs were filmed in the open field and were scored following drug administration for 30 min as described in the literature (Acta Crystallographica Section D, 2019, 75:861-877).
(§2) Statistics: Statistical analyses were performed with IBM SPSS Statistics 27 programs (IBM, Chicago, IL). The data are presented as means and standard errors of the mean. No sex effects were detected. One- or two-way ANOVA or repeated measures ANOVA (RMANOVA) were used, followed by Bonferroni corrected post-hoc analyses. A p<0.05 was considered significant. All behavioral results were plotted using GraphPad Prism.

C57BL/6J mice [2] = test: Open field locomotion in mice; format: in vivo; details: i.p.
Procedure: as §1, §2

5-HT2CR [3] = biological target: T1, 5-HT2CR (Homo sapiens, UniProt P28335); test: Calcium flux assay (FLIPR, Fluo-4), 5-HT2CR stable cell line; format: cell-based
T1 sequence (P28335 33-458): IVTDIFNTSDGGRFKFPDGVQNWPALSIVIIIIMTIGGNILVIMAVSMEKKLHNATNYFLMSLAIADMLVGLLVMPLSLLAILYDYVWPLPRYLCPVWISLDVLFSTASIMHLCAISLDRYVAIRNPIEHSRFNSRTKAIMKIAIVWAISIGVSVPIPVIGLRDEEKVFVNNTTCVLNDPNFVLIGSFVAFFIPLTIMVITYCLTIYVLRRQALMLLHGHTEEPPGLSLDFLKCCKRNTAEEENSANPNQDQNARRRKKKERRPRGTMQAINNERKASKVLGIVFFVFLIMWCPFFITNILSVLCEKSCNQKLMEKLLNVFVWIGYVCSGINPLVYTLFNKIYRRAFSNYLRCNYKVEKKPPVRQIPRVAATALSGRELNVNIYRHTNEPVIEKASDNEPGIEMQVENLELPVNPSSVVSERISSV
Procedure: (§3) Stable cell lines for 5-HT2AR, 5-HT2BR and 5-HT2CR generated using the Flp-In 293 T-Rex Tetracycline inducible system (Invitrogen). Tetracycline-induced cells were seeded in 384-well poly-L-lysine plates at a density of 10,000 cells/well in DMEM containing 1% dialyzed FBS at least 16-24 hr before the calcium flux assay. On the day of the assay, the cells were incubated (20 ul/well) for 1 hr at 37° C. with Fluo-4 Direct dye (Invitrogen) reconstituted in FLIPR buffer (1×HBSS, 2.5 mM probenecid, and 20 mM HEPES, pH 7.4). After dye loading, cells were placed in a FLIPR^TETRA fluorescence imaging plate reader (Molecular Dynamics). Drug dilutions were prepared at 3× final concentration in drug buffer (1×HBSS, 20 mM HEPES, 0.1% BSA, 0.01% ascorbic acid, pH 7.4) and aliquoted into 384-well plates and placed in the FLIPR^TETRA for drug stimulation. The fluidics module and plate reader of the FLIPR^TETRA were programmed to read baseline fluorescence for 10s (1 read/s), then 10 ul of drug/well was added and read for 5 min (1 read/s). Fluorescence in each well was normalized to the average of the first 10 reads (i.e., baseline fluorescence). Then, the maximum-fold increase, which occurred within the first 60 s after drug addition, was determined and fold over baseline was plotted as a function of drug concentration. Data were normalized to % 5-HT stimulation and analyzed using “log(agonist) vs. response” in GraphPad Prism 9.0.

5-HT2AR [4] = biological target: T2, 5-HT2AR (Homo sapiens, UniProt P28223); test: 5-HT2AR binding affinity (Ki), Table 8; details: read-out: 5-HT2AR Ki
T2 construct: expressed in transfected cells; host or cells: Flp-In 293 T-Rex (tetracycline inducible)
T2 sequence (P28223 whole entry): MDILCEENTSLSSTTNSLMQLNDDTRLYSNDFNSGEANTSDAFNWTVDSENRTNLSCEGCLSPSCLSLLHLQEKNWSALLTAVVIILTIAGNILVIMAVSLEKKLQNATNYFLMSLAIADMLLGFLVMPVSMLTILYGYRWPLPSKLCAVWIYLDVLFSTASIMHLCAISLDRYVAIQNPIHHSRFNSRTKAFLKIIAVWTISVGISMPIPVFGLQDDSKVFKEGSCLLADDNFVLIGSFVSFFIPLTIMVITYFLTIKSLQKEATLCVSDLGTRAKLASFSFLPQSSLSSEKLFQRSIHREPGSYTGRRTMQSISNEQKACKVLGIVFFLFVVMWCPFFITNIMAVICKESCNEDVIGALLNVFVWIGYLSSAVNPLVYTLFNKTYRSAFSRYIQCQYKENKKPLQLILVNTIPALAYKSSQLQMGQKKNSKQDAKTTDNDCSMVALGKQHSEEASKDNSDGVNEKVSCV

[5] = system: wild-type (WT) and vesicular monoamine transporter 2 (VMAT2) heterozygous (HET) mice; test: Tail suspension test (immobility time) in wild-type and VMAT2 heterozygous mice; format: in vivo; details: 30 min after administration; for immobility time during the tail suspension test: compared to vehicle
Procedure: Tail suspension: This test was conducted as described in the literature (Acta Crystallographica Section D, 2010, 66:486-501). […] Immobility times were assessed over 6 min using MedAssociates software.

5-HT2AR [6] = biological target: T2, 5-HT2AR; test: Calcium flux assay (FLIPR, Fluo-4), 5-HT2AR stable cell line; format: cell-based
Procedure: as §3

5-HT2CR [7] = biological target: T1, 5-HT2CR; test: 5-HT2CR binding affinity (Ki), Table 8; details: read-out: 5-HT2CR Ki
5-HT2BR [8] = biological target: T3, 5-HT2BR (Homo sapiens, UniProt P41595); test: Calcium flux assay (FLIPR, Fluo-4), 5-HT2BR stable cell line; format: cell-based
T3 construct: expressed in transfected cells; host or cells: Flp-In 293 T-Rex (tetracycline inducible)
T3 sequence (P41595 whole entry): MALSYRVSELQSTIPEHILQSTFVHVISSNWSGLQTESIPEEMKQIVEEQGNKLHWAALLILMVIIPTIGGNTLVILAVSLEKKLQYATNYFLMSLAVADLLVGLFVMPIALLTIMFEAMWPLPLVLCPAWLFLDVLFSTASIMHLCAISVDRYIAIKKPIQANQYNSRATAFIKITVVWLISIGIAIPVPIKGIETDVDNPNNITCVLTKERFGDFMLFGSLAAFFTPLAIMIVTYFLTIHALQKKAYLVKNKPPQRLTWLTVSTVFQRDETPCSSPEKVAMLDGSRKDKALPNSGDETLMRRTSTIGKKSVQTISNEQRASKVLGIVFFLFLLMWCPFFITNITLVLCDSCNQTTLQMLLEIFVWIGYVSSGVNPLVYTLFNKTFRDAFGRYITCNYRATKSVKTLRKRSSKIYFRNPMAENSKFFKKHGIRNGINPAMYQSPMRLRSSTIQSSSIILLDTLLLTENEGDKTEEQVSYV

5-HT2BR [9] = biological target: T3, 5-HT2BR; test: 5-HT2BR binding affinity (Ki), Table 8; details: read-out: 5-HT2BR Ki

Row | SMILES | head twitch responses (HTRs) (C57BL/6J mice [1]; 0.3 mg/kg LSD) | distance travelled in the open field, locomotion post injection (31-60 min) (C57BL/6J mice [2]; 0.3 mg/kg LSD) | EC50 (5-HT2CR [3]; read-out: 5-HT2CR EC50) [nM] | 5-HT2CR Rmax ± S.E.M (5-HT2CR [3]; value in parentheses) | Ki (5-HT2AR [4]) [nM] | immobility time during the tail suspension test, HET mice versus WTs given the same treatment ([5]; 1 mg/kg i.p., p=0.051) | immobility time during the tail suspension test ([5]; VMAT2 HET mice, 0.5 mg/kg i.p.) | immobility time during the tail suspension test ([5]; VMAT2 HET mice, 1 mg/kg i.p., 1 mg/kg) | immobility time during the tail suspension test ([5]; WT mice, 0.5 mg/kg i.p.) | immobility time during the tail suspension test ([5]; WT mice, 1 mg/kg i.p.) | EC50 (5-HT2AR [6]; bracketed value below EC50, read-out: 5-HT2AR pEC50 ± S.E.M (converted)) [nM] | 5-HT2AR Rmax ± S.E.M (5-HT2AR [6]; value in parentheses) | Ki (5-HT2CR [7]) [nM] | head twitch responses (HTRs) (C57BL/6J mice [1]; 1 mg/kg) | EC50 (5-HT2BR [8]; read-out: 5-HT2BR EC50) [nM] | 5-HT2BR Rmax ± S.E.M (5-HT2BR [8]; value in parentheses) | distance travelled in the open field, locomotion post injection (31-60 min) (C57BL/6J mice [2]; 1 mg/kg) | Ki (5-HT2BR [9]) [nM]
1 | CCN(CC)C(=O)[C@@H]1C=C2c3cccc4[nH]cc(c34)C[C@H]2N(C)C1 [LSD, reference compound] | stimulated | significantly higher |  |  |  |  |  |  |  |  |  |  |  |  |  |  |  | 
2 | C[C@@H]1C=C(c2c[nH]c3ncccc23)CN(C)C1 [compound 33, (R)-3-(1,5-dimethyl-1,2,5,6-tetrahydropyridin-3-yl)-1H-pyrrolo[2,3-b]pyridine] |  |  | 3250 | (51.7% | 880 | less time immobile | reduced immobility time significantly | restored wild-type levels of mobility; also recorded: reduced immobility time significantly | no effects | no effects | 110 | (73.3% | 480 | neither 38 nor 33 induced substantial HTRs; also recorded: not different from each other | 700 | (50.5% | do not enhance locomotion; also recorded: not different from one another | 440

Reference: patent publication US20230365542A1, “Selective Agonists of 5-HT2A Receptor and Methods of Use” (Yale University, priority 2020, published 2023)
